Values quoted from earlier work in US10138195B2, “Organic compounds” (Givaudan, S. A., priority 2014, dated 2018).
Read-outs that look alike come from different tables or passages of the source.

Tests used:
[1] = test system: glucose synthesis and fatty acid synthesis; settings: in vitro (McCune et al)
male rats = male rats (Hunter et al.; Cagen et al.)
[2] = test system: reproductive organs of male rats
[3] = test system: reproductive organs of male dogs
[4] = rats
[5] = dogs

Row | SMILES | Effect on glucose synthesis and fatty acid synthesis [1] | Testicular effects (male rats) | Effects on the reproductive organs [2] | Effects on the reproductive organs [3] | Effects in studies (mice) | Effects in studies (guinea-pigs) | Effects in studies (primates) | Enzymatic degradation product [4] | Enzymatic degradation product [5]
1 | CC(C)(C)c1ccc(C(=O)O)cc1 [tert-butyl benzoic acid] | inhibit glucose synthesis and fatty acid synthesis | cause testicular effects |  |  |  |  |  |  | 
2 | CC(C=O)Cc1ccc(C(C)(C)C)cc1 (stereo not drawn) [Lilial™, 3-(4-tert-butylphenyl)-2-methylpropanal] |  |  | toxic effects on the reproductive organs | toxic effects on the reproductive organs | No effects | No effects | No effects | enzymatically degraded in rats and dogs to tert-butyl benzoic acid (t-BBA) | enzymatically degraded in rats and dogs to tert-butyl benzoic acid (t-BBA)
